# Tests used:
# [1] = particle size distribution by laser diffraction (Malvern Mastersizer-2000, dry dispersion); assay type: physicochemical; conditions: volume particle size distribution of the drug substance used
# Description: Particle size is determined by laser light scattering using a particle size analyzer, such as the proprietary Mastersizer™ apparatus in a dry dispersion system available from Malvern Instruments Ltd. (Malvern Mastersizer-2000, single narrow mode). Laser diffraction enables to measure particle size distributions by measuring the angular variation by scattering light intensity as a laser beam passes through a dispersed particulate sample. Large particles scatter light at small angles relative to the laser beam and small particles scatter light at large angles. The angular scattering intensity data is then analyzed to calculate the size of the particles responsible for creating the scattering pattern, using the Mie theory of light scattering. The particle size is reported as a volume equivalent sphere diameter.
# A common approach to define the distribution width is to cite three values on the x-axis as D10, D50 and D90. The D50, named as median, has been defined as the diameter where 50 percent of the distribution lies below this value. Similarly, D90 has been defined as 90 percent of the distribution lies below, and 10 percent of the population lies below the D10.
# [2] = tested on: cough; conditions: cited from earlier work
# [3] = tested on: cough caused by tracheal mechanical stimulus; conditions: guinea pig, relative to codeine; cited from earlier work
SMILES,d(0.1) [1],d(0.5) [1],d(0.9) [1],duration of action of a single dose ([2]; single dose) [h],"initial response after oral administration ([2]; therapeutic dose range 10-20 mg three times daily for adults, oral) [min]","efficacy against cough, times greater than codeine [3] [times]"
Clc1ccc([C@@H](OCCN2CCCCC2)c2ccccc2)cc1.O=C(O)c1ccccc1C(=O)c1ccc(O)c(-c2ccccc2)c1 [Levocloperastine fendizoate],d(0.1): 3.031 µm,d(0.5): 13.126 µm,d(0.9): 39.322 µm,–,–,–
Clc1ccc(C(OCCN2CCCCC2)c2ccccc2)cc1 (racemic) [cloperastine],–,–,–,3 to 4,20 to 30,1.9

# Reference: patent EP3644968B1, “LEVOCLOPERASTINE FENDIZOATE SUSPENSION HAVING ENHANCED DISSOLUTION AND RESUSPENDABILITY” (Ilko Ilaç Sanayi Ve Ticaret Anonim Sirketi, priority 2017, dated 2019)
